A word on the melting point: it is the temperature of the solid-liquid transition.

Series [1] relates to Botryotinia fuckeliana (Botrytis cinerea). The series is described as follows: Botryotinia fuckeliana (Botrytis cinerea) / liquid culture (Gray mould). The following applies: growth inhibition photometrically 3-4 days after application, compared to untreated control. It counts as cell-based.
In series [2] the test system is Glomerella lagenarium (Colletotrichum lagenarium). Put plainly: Glomerella lagenarium (Colletotrichum lagenarium) / liquid culture (Anthracnose). It counts as cell-based. The following applies: Colletotrichum orbiculare, growth inhibition photometrically 3-4 days after application, compared to untreated control.
Series [3] relates to Monographella nivalis (Microdochium nivale). The series is described as follows: Monographella nivalis (Microdochium nivale) / liquid culture (foot rot cereals). It counts as cell-based. The following applies: 96 h, growth inhibition photometrically 4-5 days after application, compared to untreated control.
Series [4] deals with Mycosphaerella graminicola (Septoria tritici). Put plainly: Mycosphaerella graminicola (Septoria tritici) / liquid culture (Septoria blotch). The class given is cell-based. The following applies: Zymoseptoria tritici, growth inhibition photometrically 4-5 days after application, compared to untreated control.
The next series deals with Fusarium culmorum. Put plainly: microbe, parasite or virus in culture. The class given is cell-based. The following applies: read-out: control of Fusarium culmorum.
Another series deals with Gaeumannomyces graminis. Put plainly: Gaeumannomyces graminis / liquid culture (Take-all of cereals). The class given is cell-based. The following applies: growth inhibition photometrically 4-5 days after application, compared to untreated control.
Series [5] relates to Magnaporthe grisea (Pyricularia oryzae). The series is described as follows: whole plant or invertebrate. It counts as in vivo. Particulars: foliar, read-out: control of Magnaporthe grisea.
Series [6] has the same test system. Put plainly: microbe, parasite or virus in culture. The class given is cell-based. Particulars: read-out: control of Magnaporthe grisea.
Another series concerns Sclerotinia sclerotiorum. The series is described as follows: Sclerotinia sclerotiorum / liquid culture (cottony rot). The following applies: read-out: control of Sclerotinia sclerotiorum.

Method for Sclerotinia sclerotiorum: Sclerotinia sclerotiorum/Liquid Culture (Cottony Rot)
Mycelia fragments of a newly grown liquid culture of the fungus are directly mixed into 5 nutrient broth (Vogels broth). After placing a (DMSO) solution of test compound into a microtiter plate (96-well format) the nutrient broth containing the fungal material is added. The test plates are incubated at 24° C. and the inhibition of growth is determined photometrically 3-4 days after application.

On to `CC1(C)N=C(c2cnc3c(C4CC4)cccn23)c2cccc(F)c2C1(C)C` [Compound E-22, 1-(8-cyclopropylimidazo[1,2-a]pyridin-3-yl)-5-fluoro-3,3,4,4-tetramethyl-isoquinoline], for which the inhibition of growth at 20 ppm in [1], in series [2], in series [3] and in series [4] was at least 80% in each case.

`Cc1cccn2c(C3=NC(C)(C)C(F)(F)c4c(F)cccc43)cnc12` [Compound E-39, 4,4,5-trifluoro-3,3-dimethyl-1-(8-methylimidazo[1,2-a]pyridin-3-yl)isoquinoline]: the inhibition of growth at 20 ppm (in [1]; in series [2]; in the series with Fusarium culmorum; in the series with Gaeumannomyces graminis; in series [3]; in series [4]) was at least 80% in each case. For the same compound, the pest or weed control at 200 ppm in series [5] was at least 50%.

With `CC1(C)N=C(c2cnc3cc(I)ccn23)c2cccc(F)c2C1(C)C` [Compound E-44, 5-fluoro-1-(7-iodoimidazo[1,2-a]pyridin-3-yl)-3,3,4,4-tetramethyl-isoquinoline], the inhibition of growth at 20 ppm (in [1]; in [2]; in the series with Fusarium culmorum; in [3]; in series [4]) was at least 80% each time.

As to `Cc1ccn2c(C3=NC(C)(C)C(F)(F)c4ccccc43)cnc2c1C` [Compound E-57, 1-(7,8-dimethylimidazo[1,2-a]pyridin-3-yl)-4,4-difluoro-3,3-dimethyl-isoquinoline], the melting point is 159 to 161 °C. This compound also registered an inhibition of growth at 20 ppm in series [1] of at least 80%. For the same compound, the inhibition of growth at 20 ppm in [2] is at least 80%. Moreover, in the series with Fusarium culmorum, the inhibition of growth at 20 ppm is at least 80%. Moreover, the inhibition of growth at 20 ppm in series [3] was at least 80%. The pest or weed control at 200 ppm in series [5] is at least 50%. Also, the inhibition of growth at 60 ppm in series [6] was at least 80%. The inhibition of growth at 20 ppm in the series with Sclerotinia sclerotiorum is at least 80%.

`Cc1ccc2c(C3=NC(C)(C)C(=O)c4ccccc43)cnn2c1C` [Compound E-64, 1-(6,7-dimethylpyrazolo[1,5-a]pyridin-3-yl)-3,3-dimethyl-isoquinolin-4-one]: the melting point fell in the range of 152 to 153 °C. In series [1], this compound gave an inhibition of growth at 20 ppm of at least 80%. In series [2], this compound came in with an inhibition of growth at 20 ppm of at least 80%. Also, the inhibition of growth at 20 ppm in the series with Fusarium culmorum is at least 80%. This compound yielded an inhibition of growth at 20 ppm with Gaeumannomyces graminis of at least 80%. This compound yielded an inhibition of growth at 20 ppm in series [3] of at least 80%. Further, in [6], the inhibition of growth at 60 ppm was at least 80%. Further, the inhibition of growth at 20 ppm with Sclerotinia sclerotiorum is at least 80%.

With `Cc1ccc2c(C3=NC(C)(C)C(F)(F)c4ccccc43)cnn2c1C` [Compound E-65, 1-(6,7-dimethylpyrazolo[1,5-a]pyridin-3-yl)-4,4-difluoro-3,3-dimethyl-isoquinoline], the inhibition of growth at 20 ppm (in series [1]; in [2]; in the series on Fusarium culmorum; in the series on Gaeumannomyces graminis; in series [3]; in the series with Sclerotinia sclerotiorum) was at least 80% in each case. In addition, the inhibition of growth at 60 ppm in series [6] was at least 80%.

`Cc1cccc2c(C3=NC(C)(C)C(F)(F)c4ccccc43)cnn12` [Compound E-66, 4,4-difluoro-3,3-dimethyl-1-(7-methylpyrazolo[1,5-a]pyridin-3-yl)isoquinoline]: the inhibition of growth at 20 ppm (in series [1]; in series [2]; with Fusarium culmorum; in the series on Gaeumannomyces graminis; in series [3]; with Sclerotinia sclerotiorum) was at least 80% each time. The pest or weed control at 200 ppm in [5] is at least 50%. For the same compound, in [6], the inhibition of growth at 60 ppm is at least 80%.

In turn, `Cc1cccn2ncc(C3=NC(C)(C)C(F)(F)c4ccccc43)c12` [Compound E-69, 4,4-difluoro-3,3-dimethyl-1-(4-methylpyrazolo[1,5-a]pyridin-3-yl)isoquinoline] displayed a melting point of 113 to 114 °C. For the same compound, the inhibition of growth at 20 ppm in series [1] is at least 80%. The compound further showed an inhibition of growth at 20 ppm in series [2] of at least 80%. Moreover, the inhibition of growth at 20 ppm in the series on Fusarium culmorum was at least 80%. The inhibition of growth at 20 ppm with Gaeumannomyces graminis is at least 80%. This compound also came in with an inhibition of growth at 20 ppm in series [3] of at least 80%. Also, in series [5], the pest or weed control at 200 ppm is at least 50%. In addition, in series [6], the inhibition of growth at 60 ppm is at least 80%. In addition, in the series with Sclerotinia sclerotiorum, the inhibition of growth at 20 ppm was at least 80%.

As to `Cc1ccc2c(C3=NC(C)(C)C(F)(F)c4cc(F)ccc43)cnn2c1C` [Compound E-70, 1-(6,7-dimethylpyrazolo[1,5-a]pyridin-3-yl)-4,4,6-trifluoro-3,3-dimethyl-isoquinoline], the inhibition of growth at 20 ppm (in series [1]; in series [2]; in the series with Fusarium culmorum; in series [3]; in the series on Sclerotinia sclerotiorum) was at least 80% each time. Further, the pest or weed control at 200 ppm in series [5] was at least 50%. The inhibition of growth at 60 ppm in series [6] is at least 80%.

In the case of `Cc1ccc2c(C3=NC(C)(C)C(F)(F)c4c(F)cccc43)cnn2c1C` [Compound E-71, 1-(6,7-dimethylpyrazolo[1,5-a]pyridin-3-yl)-4,4,5-trifluoro-3,3-dimethyl-isoquinoline], the inhibition of growth at 20 ppm (in [1]; in [2]; with Fusarium culmorum; in the series with Gaeumannomyces graminis; in [3]; with Sclerotinia sclerotiorum) was at least 80% throughout. Also, the pest or weed control at 200 ppm in [5] is at least 50%. The inhibition of growth at 60 ppm in [6] is at least 80%.

On to `Cc1c(Br)ccc2c(C3=NC(C)(C)C(F)(F)c4ccccc43)cnn12` [Compound E-79, 1-(6-bromo-7-methyl-pyrazolo[1,5-a]pyridin-3-yl)-4,4-difluoro-3,3-dimethyl-isoquinoline], for which the melting point lay within 180 to 182 °C. In addition, the inhibition of growth at 20 ppm in series [1] is at least 80%. In [2], this compound returned an inhibition of growth at 20 ppm of at least 80%. The inhibition of growth at 20 ppm in the series on Fusarium culmorum was at least 80%. The inhibition of growth at 20 ppm in the series with Gaeumannomyces graminis is at least 80%. For the same compound, the inhibition of growth at 60 ppm in series [6] is at least 80%. Besides, in the series on Sclerotinia sclerotiorum, the inhibition of growth at 20 ppm was at least 80%.

Compound `Cc1c(Cl)ccc2c(C3=NC(C)(C)C(F)(F)c4ccccc43)cnn12` [Compound E-91, 1-(6-chloro-7-methyl-pyrazolo[1,5-a]pyridin-3-yl)-4,4-difluoro-3,3-dimethyl-isoquinoline] showed a melting point of 166 to 168 °C. Also, the inhibition of growth at 20 ppm in series [1] is at least 80%. The compound also displayed an inhibition of growth at 20 ppm in series [2] of at least 80%. For the same compound, the inhibition of growth at 20 ppm in the series on Fusarium culmorum is at least 80%. In addition, in the series with Gaeumannomyces graminis, the inhibition of growth at 20 ppm is at least 80%. The inhibition of growth at 20 ppm in [3] was at least 80%. Also, the pest or weed control at 200 ppm in series [5] is at least 50%. Besides, in series [6], the inhibition of growth at 60 ppm was at least 80%. For the same compound, the inhibition of growth at 20 ppm with Sclerotinia sclerotiorum was at least 80%.

The record behind these values is patent publication US10906897B2, “Microbiocidal heterobicyclic derivatives” (priority 2015, dated 2021).
